Measurements from ChEMBL document CHEMBL1142385, “Nitro as a novel zinc-binding group in the inhibition of carboxypeptidase A” (Bioorg Med Chem, 2008).

Each molecule was assayed against T1, Carboxypeptidase A1 (Homo sapiens, UniProt P15085) (assay: Inhibition of CPA).
T1 sequence (P15085 whole entry): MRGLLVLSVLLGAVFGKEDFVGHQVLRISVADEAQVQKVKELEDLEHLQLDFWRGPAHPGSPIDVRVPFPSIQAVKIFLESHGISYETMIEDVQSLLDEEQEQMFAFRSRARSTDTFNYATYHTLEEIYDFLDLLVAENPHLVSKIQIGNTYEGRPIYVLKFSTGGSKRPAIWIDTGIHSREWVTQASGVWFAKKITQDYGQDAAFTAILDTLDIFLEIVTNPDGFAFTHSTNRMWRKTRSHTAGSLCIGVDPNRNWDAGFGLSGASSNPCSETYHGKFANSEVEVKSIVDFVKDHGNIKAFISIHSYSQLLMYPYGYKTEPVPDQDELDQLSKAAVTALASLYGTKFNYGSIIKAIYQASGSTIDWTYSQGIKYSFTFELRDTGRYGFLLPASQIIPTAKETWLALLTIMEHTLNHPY
`O=C(O)C(Cc1ccccc1)C[N+](=O)[O-]` (racemic) was tested, and the Ki was 790 nM. `O=C(O)[C@@H](Cc1ccccc1)C[N+](=O)[O-]` gave a Ki of 68000 nM. `C=CCC(C[N+](=O)[O-])C(=O)O` (racemic) showed a Ki of 62600 nM. Work on `CC(C)CC(C[N+](=O)[O-])C(=O)O` (racemic) yielded a Ki of 2080 nM. `O=C(O)C[C@@H](Cc1ccccc1)C(=O)O` showed a Ki of 450 nM.
